One series concerns the target T1, LRAT (Mus musculus, UniProt Q9JI60).
T1 construct: For expression Lrat coding region was amplified using the primers; expressed in transfected cells; membrane homogenate
T1 sequence (Q9JI60 1-231): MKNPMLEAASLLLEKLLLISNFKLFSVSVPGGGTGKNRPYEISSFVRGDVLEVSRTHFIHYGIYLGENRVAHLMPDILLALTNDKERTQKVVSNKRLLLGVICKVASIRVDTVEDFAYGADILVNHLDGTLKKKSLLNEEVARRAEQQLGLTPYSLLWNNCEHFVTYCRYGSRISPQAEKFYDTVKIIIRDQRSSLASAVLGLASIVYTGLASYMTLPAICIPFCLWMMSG
In words: Esterification assay, RPE microsomes and HEKK-LRAT cell homogenate. The conditions noted are these: 10 min, 37° C. It is filed as biochemical. The text has this:
Inducible-Expression Of LRAT Protein in HEKK Cells. Mouse Lrat cDNA was cloned as described elsewhere. For expression Lrat coding region was amplified using the primers: 5′-[…]-3′ (SEQ ID NO: 11) and […] (SEQ ID NO: 12). The PCR product was ligated into the pCR-Blunt II-TOPO vector (Invitrogen) and then subcloned into the EcoRI site of pCDNA4/TO. TetR-expressing HEKK cells were transfected with the pCDNA4/TO-Lrat construct and selected with zeocin. Stable clones were verified for expression of Lrat protein using the anti-LRAT monoclonal antibody described elsewhere (2).
Esterification assay of all-trans-retinol and all-trans-13,14-dihydroretinol. HEKK-LRAT cells were homogenized in 250 mM sucrose, 10 mM Tris-HCl with the aid of a douncer. RPE microsomes were prepared as previously described. Stecher, et al. J Biol Chem 274:8577-8585, 1999. A substrate solution, 2 μL of 1 mM stock in DMF, was added to a 1.5 ml Eppendorf tube containing 20 μL of 10% BSA and 20 μL of UV-treated RPE microsomes or 100 μL of membrane homogenate of HEKK-LRAT cells and 10 mM BTP (pH 7.5) buffer to a total volume of 200 μL. […] Then 100 μL of the hexane extract was analyzed by normal-phase HPLC, using first 0.5% ethyl acetate in hexane for 10 min to separate retinyl esters and then 20% ethyl acetate in hexane for an additional 10 min to separate retinols. Elution was monitored at 290 nm and 325 nm.

Another series has as its target T2, Equine liver ADH (Equus caballus, UniProt P00327).
T2 construct: we used ADH purified from horse liver (EC 1.1.1.1 [EC]); purchased Sigma; host or cells: horse liver
The series is described as follows: Oxidation using liver alcohol dehydrogenase. It counts as biochemical, horse. The conditions noted are these: in the presence of NAD and NADP. Here is the method:
Oxidation of All-trans-ROL and All-trans-DROL Using Liver Alcohol Dehydrogenase. Equine liver ADH (EC 1.1.1.1 [EC] ) was obtained from Sigma and dissolved in 50 mM Tris (pH 8.8) to a concentration of 5 units/ml (8.6 mg/ml). NAD and NADP were mixed together (1:1) at a concentration of 10 mM each. A substrate solution, 2 μl of 2 mM stock of all-trans-ROL or all-trans-DROL in N,N-dimethylformamide, was added to a 1.5-ml Eppendorf tube containing 20 μl of 10% bovine serum albumin, 20 μl of ADH, 2 μl of cofactor mixture, and 50 mM Tris (pH 8.8) to a total volume of 200 μl. The solutions were incubated at 37° C. for 60 min, after which 50 μl of 0.8 M NH2OH solution (pH 7.0) was added, followed by addition of 300 μl of methanol, 15 min at room temperature, and extraction with 300 μl of hexane. The organic phase was dried and analyzed by normal phase HPLC as described in the analysis of nonpolar retinoids extracted from tissue samples. As a control for the nonenzymatic reaction, boiled protein (90° C. for 5 min) was used with or without addition of cofactors.

Series [1] is described as follows: Conversion of DROL to DRA by RPE microsomes. It is filed as in vitro ADME. As to conditions: in the presence of NAD and NADP. Here is the method: Conversion of DROL to DRA in RPE. UV-treated RPE microsomes were prepared as described previously. Stecher, et al. J. Biol. Chem. 274:8577-8585, 1999. Twenty μl of UV-treated RPE microsomes (3 mg/ml) were mixed with 20 μM DROL or ROL substrates, 1% bovine serum albumin, and 50 mM Tris (pH 8.8) and were incubated at 37° C. for 60 min in the presence or absence of NAD NADP cofactor mixture at 50 μM each. In order to stop the reaction, proteins were precipitated by mixing with an equal volume of CH3CN followed by high speed centrifugation. […] A boiled RPE membrane control was used to assay nonenzymatic conversion of DROL. The elution of all-trans-DROL metabolites was monitored at 290 nm.

T2 sequence (P00327 2-375 limits assumed): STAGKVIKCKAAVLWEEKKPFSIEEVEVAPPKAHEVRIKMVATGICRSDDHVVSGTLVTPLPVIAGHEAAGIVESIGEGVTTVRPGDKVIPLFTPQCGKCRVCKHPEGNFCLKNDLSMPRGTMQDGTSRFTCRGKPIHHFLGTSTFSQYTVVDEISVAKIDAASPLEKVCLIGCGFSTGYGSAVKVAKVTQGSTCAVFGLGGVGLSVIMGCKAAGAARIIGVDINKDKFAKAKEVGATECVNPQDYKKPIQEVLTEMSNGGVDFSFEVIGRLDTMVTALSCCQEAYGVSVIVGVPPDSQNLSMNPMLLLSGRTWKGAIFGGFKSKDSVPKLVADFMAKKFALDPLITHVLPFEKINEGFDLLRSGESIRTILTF

Take `CC1=C(/C=C/C(C)=C/C=C/C(C)CCO)C(C)(C)CCC1` (stereo not drawn) [all-trans-DROL, all-trans-13,14-dihydroretinol]: the “Esterification by LRAT (substrate activity)” value at LRAT was “as good a substrate for LRAT as all-trans-retinol”. In addition, the “Oxidation to the aldehyde by ADH” value on Equine liver ADH is recorded as “efficiently carried out the conversion”. In addition, the “Conversion to the acid by RPE microsomes” value in series [1] is “efficiently converted”.
With `CC1=C(/C=C/C(C)=C/C=C/C(C)=C/CO)C(C)(C)CCC1` [all-trans-ROL, all-trans-retinol], on Equine liver ADH, the “Oxidation to the aldehyde by ADH” value was “efficiently carried out the conversion”. Besides, the “Conversion to the acid by RPE microsomes” value in series [1] is given as “catalyzed the conversion”.

The record behind these values is patent publication US20080249042A1, “All-Trans-Retinol: All-Trans-13,14-Dihydroretinol Saturase and Methods of Its Use” (UNIVERSITY OF WASHINGTON, priority 2004, published 2008).
